Experimental data reported in ChEMBL document CHEMBL4507280 (2021).
Activity calls are given as the source filed them. The rule behind the calls is not given here.

Assays:
[1] = target: Beta-2 adrenergic receptor (Homo sapiens) (UniProt P07550); assay: BETA2/HU Eurofins-Panlabs selectivity data (BI); settings: Compound concentration 10.0 uM
[2] = target: Dual specificity protein kinase CLK3 (Homo sapiens) (UniProt P49761); settings: Compound concentration 1000.0 nM
[3] = target: Mitogen-activated protein kinase kinase kinase kinase 2 (Homo sapiens) (UniProt Q12851); settings: Compound concentration 1000.0 nM
[4] = target: Serine/threonine-protein kinase DCLK3 (Homo sapiens) (UniProt Q9C098); settings: Compound concentration 1000.0 nM
[5] = target: Serine/threonine-protein kinase B-raf (Homo sapiens) (UniProt P15056); settings: Compound concentration 1000.0 nM
Sequence of Serine/threonine-protein kinase B-raf (Homo sapiens) (P15056 whole entry): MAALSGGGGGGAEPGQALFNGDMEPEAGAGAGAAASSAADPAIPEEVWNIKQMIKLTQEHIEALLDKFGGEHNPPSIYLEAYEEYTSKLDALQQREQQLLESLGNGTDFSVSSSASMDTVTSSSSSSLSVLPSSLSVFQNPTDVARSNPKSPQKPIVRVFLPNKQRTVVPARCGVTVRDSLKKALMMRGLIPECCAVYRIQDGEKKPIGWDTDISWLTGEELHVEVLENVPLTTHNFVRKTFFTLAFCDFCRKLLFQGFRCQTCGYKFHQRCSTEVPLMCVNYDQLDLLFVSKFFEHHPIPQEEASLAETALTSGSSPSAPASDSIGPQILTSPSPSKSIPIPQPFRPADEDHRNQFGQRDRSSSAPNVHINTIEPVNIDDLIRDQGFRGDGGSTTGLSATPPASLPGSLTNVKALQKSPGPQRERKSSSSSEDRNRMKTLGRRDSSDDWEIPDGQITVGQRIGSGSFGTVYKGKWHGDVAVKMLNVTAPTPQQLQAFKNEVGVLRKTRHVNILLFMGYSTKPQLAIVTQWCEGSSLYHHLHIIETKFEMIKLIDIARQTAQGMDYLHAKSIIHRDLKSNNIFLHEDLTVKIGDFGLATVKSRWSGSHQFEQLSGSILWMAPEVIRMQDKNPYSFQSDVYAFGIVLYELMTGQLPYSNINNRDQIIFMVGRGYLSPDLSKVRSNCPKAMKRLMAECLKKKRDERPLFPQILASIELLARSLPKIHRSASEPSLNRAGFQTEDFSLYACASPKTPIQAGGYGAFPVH

[6] = target: Serine/threonine-protein kinase ULK2 (Homo sapiens) (UniProt Q8IYT8); settings: Compound concentration 1000.0 nM
Sequence of Serine/threonine-protein kinase ULK2 (Homo sapiens) (Q8IYT8 whole entry): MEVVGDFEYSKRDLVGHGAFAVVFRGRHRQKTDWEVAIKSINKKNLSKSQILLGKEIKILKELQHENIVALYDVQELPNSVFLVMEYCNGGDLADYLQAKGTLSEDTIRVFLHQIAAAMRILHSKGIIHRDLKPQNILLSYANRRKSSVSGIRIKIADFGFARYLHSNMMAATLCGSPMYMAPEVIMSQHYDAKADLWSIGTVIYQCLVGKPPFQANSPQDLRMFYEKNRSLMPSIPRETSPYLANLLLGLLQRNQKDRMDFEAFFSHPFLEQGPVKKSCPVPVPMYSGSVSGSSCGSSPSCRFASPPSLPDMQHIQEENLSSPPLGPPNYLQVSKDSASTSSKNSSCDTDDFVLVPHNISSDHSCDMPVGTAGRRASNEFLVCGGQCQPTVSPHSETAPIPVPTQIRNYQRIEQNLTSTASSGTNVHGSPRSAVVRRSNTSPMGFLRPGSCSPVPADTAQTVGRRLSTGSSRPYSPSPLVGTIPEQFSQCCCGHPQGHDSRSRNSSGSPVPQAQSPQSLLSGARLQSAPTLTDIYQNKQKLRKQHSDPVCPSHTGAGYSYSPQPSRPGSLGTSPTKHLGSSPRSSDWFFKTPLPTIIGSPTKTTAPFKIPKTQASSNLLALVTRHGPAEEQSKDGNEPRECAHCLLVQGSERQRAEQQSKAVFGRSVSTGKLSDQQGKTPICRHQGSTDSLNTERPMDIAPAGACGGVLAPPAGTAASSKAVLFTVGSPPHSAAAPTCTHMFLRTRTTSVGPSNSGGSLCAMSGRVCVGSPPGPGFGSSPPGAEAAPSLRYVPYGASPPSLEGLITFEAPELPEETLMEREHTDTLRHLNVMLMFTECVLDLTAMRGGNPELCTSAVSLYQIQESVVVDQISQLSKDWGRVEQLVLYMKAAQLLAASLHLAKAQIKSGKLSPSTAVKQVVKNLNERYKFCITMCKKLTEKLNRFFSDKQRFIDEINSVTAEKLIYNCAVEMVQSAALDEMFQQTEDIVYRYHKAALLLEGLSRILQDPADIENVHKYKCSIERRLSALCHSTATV

[7] = test system: Epidermal growth factor receptor (Homo sapiens), P00533 [UNDEFINED MUTATION]; settings: Compound concentration 1000.0 nM
[8] = target: Voltage-dependent L-type calcium channel subunit alpha-1C (DHP site) (Rattus norvegicus, UniProt P22002); assay: CA+/DHPSI/RA Eurofins-Panlabs selectivity data (BI); settings: compound concentration 10 uM, read-out: % Ctrl
[9] = target: Acetylcholine receptor subunit alpha (Homo sapiens) (UniProt P02708); assay: NACH/H Eurofins-Panlabs selectivity data (BI); settings: Compound concentration 10.0 uM
[10] = target: Insulin receptor (Homo sapiens) (UniProt P06213); settings: Compound concentration 1000.0 nM
Sequence of Insulin receptor (Homo sapiens) (P06213 28-758 limits assumed): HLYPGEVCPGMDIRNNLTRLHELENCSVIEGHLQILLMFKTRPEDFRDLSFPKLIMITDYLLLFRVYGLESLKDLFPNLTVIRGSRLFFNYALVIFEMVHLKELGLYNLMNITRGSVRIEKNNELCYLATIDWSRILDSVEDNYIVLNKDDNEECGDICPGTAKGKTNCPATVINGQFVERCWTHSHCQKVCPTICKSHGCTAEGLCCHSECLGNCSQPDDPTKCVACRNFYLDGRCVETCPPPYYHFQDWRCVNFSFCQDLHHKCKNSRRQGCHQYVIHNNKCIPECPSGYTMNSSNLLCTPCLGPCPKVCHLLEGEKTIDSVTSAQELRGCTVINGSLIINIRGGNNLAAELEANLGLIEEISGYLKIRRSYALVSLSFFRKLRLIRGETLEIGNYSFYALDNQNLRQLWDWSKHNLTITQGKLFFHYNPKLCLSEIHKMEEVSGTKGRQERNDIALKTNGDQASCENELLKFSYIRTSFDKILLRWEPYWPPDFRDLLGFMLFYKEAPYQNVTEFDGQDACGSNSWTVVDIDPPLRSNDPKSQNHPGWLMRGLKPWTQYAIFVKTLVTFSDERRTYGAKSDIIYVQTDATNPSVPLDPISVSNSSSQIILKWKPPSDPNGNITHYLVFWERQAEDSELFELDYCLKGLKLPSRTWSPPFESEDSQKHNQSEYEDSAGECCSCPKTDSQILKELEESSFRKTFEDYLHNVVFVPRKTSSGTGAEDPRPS
Sequence of Insulin receptor (Homo sapiens) (P06213 763-1382 limits assumed): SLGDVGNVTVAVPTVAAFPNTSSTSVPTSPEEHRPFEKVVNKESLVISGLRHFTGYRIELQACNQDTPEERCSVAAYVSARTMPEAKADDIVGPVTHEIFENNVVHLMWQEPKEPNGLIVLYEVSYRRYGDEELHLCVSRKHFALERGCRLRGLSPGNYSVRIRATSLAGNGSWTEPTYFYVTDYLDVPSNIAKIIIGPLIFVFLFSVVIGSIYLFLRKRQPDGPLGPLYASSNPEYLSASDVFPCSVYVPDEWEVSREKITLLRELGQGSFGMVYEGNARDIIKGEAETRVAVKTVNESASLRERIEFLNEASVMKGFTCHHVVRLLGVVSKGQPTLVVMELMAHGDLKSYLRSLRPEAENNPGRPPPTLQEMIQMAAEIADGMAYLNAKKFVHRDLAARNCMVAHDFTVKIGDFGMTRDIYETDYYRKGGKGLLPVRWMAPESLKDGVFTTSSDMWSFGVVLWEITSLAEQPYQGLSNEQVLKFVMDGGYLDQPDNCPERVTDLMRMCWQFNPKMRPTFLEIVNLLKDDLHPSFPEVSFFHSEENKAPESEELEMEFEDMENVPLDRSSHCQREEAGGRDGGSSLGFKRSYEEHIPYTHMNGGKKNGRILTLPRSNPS

[11] = target: Protein kinase C epsilon type (Homo sapiens) (UniProt Q02156); settings: Compound concentration 1000.0 nM
[12] = target: Wee1-like protein kinase (Homo sapiens) (UniProt P30291); settings: Compound concentration 1000.0 nM
[13] = target: Tyrosine-protein kinase receptor TYRO3 (Homo sapiens) (UniProt Q06418); settings: Compound concentration 1000.0 nM
[14] = target: Prostaglandin E2 receptor EP4 subtype (Homo sapiens) (UniProt P35408); assay: EP4/H Eurofins-Panlabs selectivity data (BI); settings: Compound concentration 10.0 uM
[15] = target: D(1A) dopamine receptor (Homo sapiens) (UniProt P21728); settings: Compound concentration 10.0 uM
[16] = target: Alpha-2A adrenergic receptor (Homo sapiens) (UniProt P08913); assay: ALPHA2A/H Eurofins-Panlabs selectivity data (BI); settings: Compound concentration 10.0 uM
[17] = target: Adenosine receptor A1 (Homo sapiens) (UniProt P30542); assay: A1/HU Eurofins-Panlabs selectivity data (BI); settings: Compound concentration 10.0 uM
[18] = target: Sodium-dependent noradrenaline transporter (Homo sapiens) (UniProt P23975); assay: NETRANS/H Eurofins-Panlabs selectivity data (BI); settings: Compound concentration 10.0 uM
[19] = target: Nicotinic acetylcholine receptor alpha-1/beta-1 (Homo sapiens) (UniProt P02708+P11230); assay: NACH_BS_N/H Eurofins-Panlabs selectivity data (BI); type: protein-complex assay; settings: Compound concentration 10.0 uM
[20] = target: 5-hydroxytryptamine receptor 7 (Homo sapiens) (UniProt P34969); settings: Compound concentration 10.0 uM
[21] = target: Mitogen-activated protein kinase kinase kinase 19 (Homo sapiens) (UniProt Q56UN5); settings: Compound concentration 1000.0 nM
Sequence of Mitogen-activated protein kinase kinase kinase 19 (Homo sapiens) (Q56UN5 whole entry): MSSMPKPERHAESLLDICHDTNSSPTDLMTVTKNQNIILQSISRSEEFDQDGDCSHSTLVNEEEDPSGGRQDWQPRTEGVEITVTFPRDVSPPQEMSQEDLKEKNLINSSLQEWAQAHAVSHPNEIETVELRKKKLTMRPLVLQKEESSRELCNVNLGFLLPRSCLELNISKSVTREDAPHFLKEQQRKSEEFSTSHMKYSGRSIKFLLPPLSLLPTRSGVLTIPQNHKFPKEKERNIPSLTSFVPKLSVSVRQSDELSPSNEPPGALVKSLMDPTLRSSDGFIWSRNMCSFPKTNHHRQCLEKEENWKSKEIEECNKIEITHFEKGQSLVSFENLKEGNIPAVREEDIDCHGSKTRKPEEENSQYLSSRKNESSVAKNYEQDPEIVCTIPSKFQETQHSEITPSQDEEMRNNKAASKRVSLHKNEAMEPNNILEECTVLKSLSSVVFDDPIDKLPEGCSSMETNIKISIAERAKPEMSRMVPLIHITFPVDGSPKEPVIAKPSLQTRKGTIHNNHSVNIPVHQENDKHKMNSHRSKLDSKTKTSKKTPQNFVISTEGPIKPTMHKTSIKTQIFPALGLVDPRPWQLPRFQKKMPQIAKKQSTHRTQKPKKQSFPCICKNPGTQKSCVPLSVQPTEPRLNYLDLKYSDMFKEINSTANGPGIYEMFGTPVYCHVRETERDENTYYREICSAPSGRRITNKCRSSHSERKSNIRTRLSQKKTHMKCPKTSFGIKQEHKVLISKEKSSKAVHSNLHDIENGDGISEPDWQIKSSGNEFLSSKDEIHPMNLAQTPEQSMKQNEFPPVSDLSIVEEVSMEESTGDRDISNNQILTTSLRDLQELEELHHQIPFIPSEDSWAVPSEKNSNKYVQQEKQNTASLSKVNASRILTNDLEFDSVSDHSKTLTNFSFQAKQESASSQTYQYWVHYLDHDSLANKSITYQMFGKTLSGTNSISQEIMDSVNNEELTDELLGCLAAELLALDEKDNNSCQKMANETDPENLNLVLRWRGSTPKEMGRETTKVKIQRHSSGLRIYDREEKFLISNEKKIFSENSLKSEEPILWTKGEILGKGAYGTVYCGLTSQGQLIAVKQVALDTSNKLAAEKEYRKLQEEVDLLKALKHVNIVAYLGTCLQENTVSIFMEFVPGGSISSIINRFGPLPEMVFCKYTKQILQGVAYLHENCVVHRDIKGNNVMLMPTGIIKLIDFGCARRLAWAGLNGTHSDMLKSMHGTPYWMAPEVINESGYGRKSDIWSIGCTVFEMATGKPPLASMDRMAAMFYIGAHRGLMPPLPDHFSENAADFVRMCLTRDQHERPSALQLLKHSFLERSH

[22] = target: 5-hydroxytryptamine receptor 1B (Homo sapiens) (UniProt P28222); settings: Compound concentration 10.0 uM
[23] = target: Glutamate receptor ionotropic, NMDA 2A (Rattus norvegicus) (UniProt Q00959); assay: NMDAPHSI/R Eurofins-Panlabs selectivity data (BI); settings: Compound concentration 10.0 uM
[24] = target: Cyclin-dependent kinase 2 homolog (Plasmodium falciparum (isolate 3D7)) (UniProt P61075); settings: Compound concentration 1000.0 nM
[25] = target: Mu-type opioid receptor (Homo sapiens) (UniProt P35372); assay: MU/HU Eurofins-Panlabs selectivity data (BI); settings: Compound concentration 10.0 uM
[26] = target: Ephrin type-B receptor 6 (Homo sapiens) (UniProt O15197); settings: Compound concentration 1000.0 nM
[27] = target: Platelet-derived growth factor receptor beta (Homo sapiens) (UniProt P09619); settings: Compound concentration 1000.0 nM
[28] = target: 3',5'-cyclic-AMP phosphodiesterase 4A (Rattus norvegicus) (UniProt P54748); assay: ROLIPRAM/R Eurofins-Panlabs selectivity data (BI); settings: Compound concentration 10.0 uM
[29] = target: Serine/threonine-protein kinase pim-2 (Homo sapiens) (UniProt Q9P1W9); settings: Compound concentration 1000.0 nM
Sequence of Serine/threonine-protein kinase pim-2 (Homo sapiens) (Q9P1W9 whole entry, looked up): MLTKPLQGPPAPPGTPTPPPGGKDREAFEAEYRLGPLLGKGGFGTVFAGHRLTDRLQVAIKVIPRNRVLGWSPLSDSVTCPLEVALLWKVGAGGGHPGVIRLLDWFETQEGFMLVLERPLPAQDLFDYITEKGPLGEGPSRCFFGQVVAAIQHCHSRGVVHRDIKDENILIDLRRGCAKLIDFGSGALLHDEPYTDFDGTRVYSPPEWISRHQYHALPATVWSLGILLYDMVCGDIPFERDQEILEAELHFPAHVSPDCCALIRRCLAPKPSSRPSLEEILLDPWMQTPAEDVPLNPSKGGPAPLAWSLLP

[30] = target: Serine/threonine-protein kinase Nek9 (Homo sapiens) (UniProt Q8TD19); settings: Compound concentration 1000.0 nM
[31] = test system: Tyrosine-protein kinase ABL1 (Homo sapiens), P00519 [F317L]; settings: Compound concentration 1000.0 nM
[32] = target: Gamma-aminobutyric acid receptor subunit alpha-1 (Rattus norvegicus) (UniProt P62813); assay: GABAA MUSCIMOL CENT Eurofins-Panlabs selectivity data (BI); settings: Compound concentration 10.0 uM
[33] = target: Focal adhesion kinase 1 (Homo sapiens) (UniProt Q05397); settings: Compound concentration 1000.0 nM
[34] = target: T1, Fatty acid synthase (Homo sapiens, UniProt P49327); assay: Inhibition of [14C]acetate incorporation into human H1975 cells; type: cell-based, NCI-H1975
[35] = target: Alpha-1D adrenergic receptor (Homo sapiens) (UniProt P25100); settings: Compound concentration 10.0 uM
[36] = target: Cyclin-dependent kinase-like 2 (Homo sapiens) (UniProt Q92772); settings: Compound concentration 1000.0 nM
[37] = target: Dual specificity mitogen-activated protein kinase kinase 2 (Homo sapiens) (UniProt P36507); settings: Compound concentration 1000.0 nM
[38] = test system: Tyrosine-protein kinase ABL1 (Homo sapiens), P00519 [F317I]; settings: Compound concentration 1000.0 nM
[39] = target: Serine/threonine-protein kinase BRSK1 (Homo sapiens) (UniProt Q8TDC3); settings: Compound concentration 1000.0 nM
[40] = target: Tyrosine-protein kinase Fgr (Homo sapiens) (UniProt P09769); settings: Compound concentration 1000.0 nM
[41] = target: Sigma intracellular receptor 2 (Homo sapiens, UniProt Q5BJF2); assay: GPCRScan assay: inhibition of Sigma 2; design: radioligand conc. used [nm] 5.0, parental cells HEKT
Sequence of Sigma intracellular receptor 2 (Q5BJF2 whole entry): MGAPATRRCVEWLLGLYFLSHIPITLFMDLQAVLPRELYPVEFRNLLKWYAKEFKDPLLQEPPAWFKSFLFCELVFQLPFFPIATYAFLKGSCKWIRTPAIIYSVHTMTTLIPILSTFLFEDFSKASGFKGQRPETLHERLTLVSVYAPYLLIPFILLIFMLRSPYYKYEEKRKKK

[42] = target: T1, Fatty acid synthase; assay: Human FAS enzyme assay
[43] = target: NUAK family SNF1-like kinase 2 (Homo sapiens) (UniProt Q9H093); settings: Compound concentration 1000.0 nM
[44] = target: Glycogen synthase kinase-3 beta (Homo sapiens) (UniProt P49841); settings: Compound concentration 1000.0 nM
[45] = target: Delta-type opioid receptor (Homo sapiens) (UniProt P41143); settings: Compound concentration 10.0 uM
[46] = target: Serine/threonine-protein kinase MRCK beta (Homo sapiens) (UniProt Q9Y5S2); settings: Compound concentration 1000.0 nM

SMILES | residual activity [2] | residual activity [3] | residual activity [4] | residual activity [5] | residual activity [6] | residual activity [7] | residual activity [10] | residual activity [11] | residual activity [12] | residual activity [13] | inhibition [15] | residual activity [21] | residual activity [24] | residual activity [26] | residual activity [27] | residual activity [29] | residual activity [30] | residual activity [31] | residual activity [33] | residual activity [36] | other results
CCC(=O)N[C@H]1CC[C@@H](C(=O)N(C)c2ccc(-c3nc4ccccc4o3)cc2)C1 [BI 99179] | 91% | 96% | 87% | 100% | 75% | 100% | 91% | 90% | 100% | 92% | -2.15% | 69% | 80% | 100% | 89% | 100% | 99% | 72% | 100% | 100% | residual activity [1]: 100%; activity at 10 µM [8]: 93% (not active); residual activity [9]: 113%; residual activity [14]: 91%; residual activity [16]: 98%; residual activity [17]: 107%; residual activity [18]: 91%; residual activity [19]: 91%; inhibition [20]: -6.53%; inhibition [22]: 25.7%; residual activity [23]: 101%; residual activity [25]: 100%; residual activity [28]: 83%; residual activity [32]: 96%; IC50 [34]: 180 nM (active); inhibition [35]: 50%
CCC(=O)N[C@@H]1CC[C@H](C(=O)N(C)c2ccc(-c3nc4ccccc4o3)cc2)C1 [BI 99990] | 100% | 100% | 100% | 96% | 100% | 100% | 93% | 93% | 99% | 82% | -1.16% | 92% | 100% | 100% | 98% | 100% | 100% | 86% | 100% | 100% | residual activity [37]: 100%; residual activity [38]: 87%; residual activity [39]: 100%; residual activity [40]: 100%; Ki [41]: 396 nM; IC50 [42]: > 3000 nM (not active); residual activity [43]: 100%; residual activity [44]: 96%; inhibition [45]: -0.0188%; residual activity [46]: 100%
